Reference: US20260373138A1, “COMPOUNDS WITH ANTIFUNGAL PROPERTIES” (priority 2023, published 2026)

Assays:
[1] = test system: A. fumigatus CEA10 reference strain; test: Fluconazole potentiator screen: MIC by CLSI microbroth dilution with and without fluconazole; assay type: cell-based, Aspergillus fumigatus; details: 18 h; for MIC: Aspergillus fumigatus, read-out: MIC (ug/mL) (−) Fluc; for MIC (ug/mL) (+) Fluc: with 32 μg/ml fluconazole, normoxia, GMM, 37 °C
[2] = test system: Aspergillus fumigatus SrbA pathway; details: phenotype of SrbA pathway inhibition, previously published; cited from earlier work

SMILES	MIC [1]	MIC (ug/mL) (+) Fluc [1]	MIC to fluconazole [2]
O=S(=O)(NC1CCC(Cc2ccc(CN3CCOCC3)cc2)CC1)c1ccc(F)cc1 (stereo not shown) [MBX-8283]	> 22 µg/mL	>22 µg/mL	–
O=S(=O)(NC1CCN(Cc2ccc(CN3CCOCC3)cc2)CC1)c1ccc(F)cc1 [MBX-8284]	> 22 µg/mL	>22 µg/mL	–
O=C(c1ccsc1)N1CC2(CC(CCOc3ccncc3)C2)C1 [MBX-8285]	4.11 µg/mL	2.05 µg/mL	–
O=C(c1ccsc1)N1CC(Cc2ccc(COc3ccncc3)cc2)C1 [MBX-8305]	9.1 µg/mL	4.50 µg/mL	–
O=S(=O)(c1ccsc1)N1CC2(CC(CCOc3ccncc3)C2)C1 [MBX-8306]	9.1 µg/mL	4.50 µg/mL	–
O=S(=O)(c1ccsc1)N1CCc2cc(COc3ccncc3)ccc2C1 [MBX-8307]	4.8 µg/mL	2.40 µg/mL	–
O=C(c1ccsc1)N1CCc2cc(COc3ccncc3)ccc2C1 [MBX-8308]	4.3 µg/mL	1.90 µg/mL	–
O=C(c1ccsc1)N1CCC(Oc2ccc(COc3ccncc3)cc2)CC1 [MBX-8309]	19 µg/mL	19.00 µg/mL	–
O=S(=O)(c1cccs1)N1CCC2(CC1)CN(CCOc1ccncc1)CCO2 [MBX-8310]	21 µg/mL	5.20 µg/mL	–
O=S(=O)(NC1CC2(CC(Cc3ccc(CN4CCOCC4)cc3)C2)C1)c1ccc(F)cc1 (stereo not shown) [MBX-8311]	19 µg/mL	22.00 µg/mL	–
O=C(NC1CCN(Cc2ccc(COc3ccncc3)cc2)CC1)c1ccsc1 [MBX-8312]	> 20 µg/mL	>20 µg/mL	–
O=C(c1ccsc1)N1CCC(Cc2ccc(COc3ccncc3)nc2)CC1 [MBX-8323]	2.4 µg/mL	1.20 µg/mL	–
O=S(=O)(c1ccc(F)cc1)N1CCC(Cc2ccc(CN3CCOCC3)cc2F)CC1 [MBX-8324]	1.2 µg/mL	0.17 µg/mL	–
O=S(=O)(c1ccc(F)cc1)C1CCN(Cc2ccc(CN3CCOCC3)cc2)CC1 [MBX-8325]	> 20 µg/mL	>20 µg/mL	–
O=S(=O)(c1ccc(F)cc1)N1CC2(CC(Cc3ccc(CN4CCOCC4)cc3)C2)C1 [MBX-8345]	> 22 µg/mL	11.00 µg/mL	–
Cc1cc(CN2CCOCC2)ccc1CC1CCN(S(=O)(=O)c2ccc(F)cc2)CC1 [MBX-8346]	1.1 µg/mL	0.15 µg/mL	–
O=S(=O)(c1ccc(F)cc1)N1CCC(Cc2ccc(CC3CCOCC3)cc2)CC1 [MBX-8347]	> 21 µg/mL	>21 µg/mL	–
O=C1c2ccsc2CCN1Cc1ccc(CCOc2ccncc2)cc1 [MBX-8354]	9 µg/mL	14.00 µg/mL	–
O=S(=O)(c1cccc(F)c1)N1CCC(C(O)c2ccc(CN3CCOCC3)cc2)CC1 (stereo not shown) [MBX-8355]	> 22 µg/mL	>22 µg/mL	–
O=S(=O)(c1ccc(F)cc1)N1CCC(Cc2ccc(CN3CCOCC3)c(F)c2)CC1 [MBX-8356]	0.6 µg/mL	0.09 µg/mL	–
CC(c1ccc(CC2CCN(S(=O)(=O)c3ccc(F)cc3)CC2)cc1)N1CCOCC1 (stereo not shown) [MBX-8357]	> 22 µg/mL	5.60 µg/mL	–
CC(c1ccc(CC2CCN(S(=O)(=O)c3cccc(F)c3)CC2)cc1)N1CCOCC1 (stereo not shown) [MBX-8358]	2.79 µg/mL	0.44 µg/mL	–
CC(C1CCN(Cc2ccc(CN3CCOCC3)cc2)CC1)S(=O)(=O)c1ccc(F)cc1 (stereo not shown) [MBX-8359]	> 23 µg/mL	>23 µg/mL	–

SMILES	MIC [1]	MIC (ug/mL) (+) Fluc [1]	MIC to fluconazole [2]
N=S(=O)(c1ccc(F)cc1)N1CCC(Cc2ccc(CN3CCOCC3)cc2)CC1 (stereo not shown) [MBX-8389]	> 43 µg/mL	>43 µg/mL	–
O=S(=O)(c1ccc(F)cc1)N1CCC(Cc2ccc(CN3CCOCC3)cc2)C1 (stereo not shown) [MBX-8390]	2 µg/mL	0.40 µg/mL	–
O=S(=O)(c1ccc(F)cc1)N1CCC(Cc2ccc(COc3ccncc3)cc2)C1 (stereo not shown) [MBX-8391]	1 µg/mL	0.20 µg/mL	–
O=C(c1ccc(C(F)(F)F)nc1)N1CCC(Cc2ccc(CN3CCOCC3)cc2)C1 (stereo not shown) [MBX-8392]	> 43 µg/mL	>43 µg/mL	–
O=S(=O)(c1ccc(C(F)(F)F)nc1)N1CCC(Cc2ccc(COc3ccncc3)cc2)C1 (stereo not shown) [MBX-8393]	> 47 µg/mL	>47 µg/mL	–
O=C(c1cccs1)N1CCC2(CC1)CC(CCOc1ccncc1)CCO2 (stereo not shown) [MBX-8394]	19 µg/mL	9.70 µg/mL	–
O=S(=O)(c1ccc(F)cc1)N1CCC(Cc2ccc(Cc3ccncc3)cc2)CC1 [MBX-8428]	10.6 µg/mL	6.37 µg/mL	–
O=C(c1ccsc1)N1CCC(Cc2ccc(CN3CCOCC3)cc2)C1 (stereo not shown) [MBX-8429]	18.5 µg/mL	18.53 µg/mL	–
O=C(c1ccsc1)N1CC[C@@H](Cc2ccc(COc3ccncc3)cc2)C1 [MBX-8431]	3.78 µg/mL	1.14 µg/mL	–
O=C(c1ccsc1)N1CC[C@H](Cc2ccc(COc3ccncc3)cc2)C1 [MBX-8432]	4.16 µg/mL	1.51 µg/mL	–
O=C(c1ccc(Cl)s1)N1CCC2(CC1)CC(CCOc1ccncc1)CCO2 (stereo not shown) [MBX-8433]	2.53 µg/mL	0.84 µg/mL	–
O=S(=O)(c1cccs1)N1CCC2(CCc3cc(Oc4ccncc4)ccc3O2)CC1 [MBX-8435]	> 22 µg/mL	>22 µg/mL	–
CN1CCN(Cc2ccc(CC3CCN(S(=O)(=O)c4ccc(F)cc4)CC3)cc2)CC1 [MBX-8436]	4.46 µg/mL	0.45 µg/mL	–
O=S(=O)(c1ccc(F)cc1)N1CCC(Cc2ccc(CN3CCN(CC(F)(F)F)CC3)cc2)CC1 [MBX-8438]	> 25 µg/mL	>25 µg/mL	–
CN(C)Cc1ccc(CC2CCN(S(=O)(=O)c3ccc(F)cc3)CC2)cc1 [MBX-8439]	9.76 µg/mL	0.78 µg/mL	–
O=C(c1ccsc1)N1CCC(Cc2ccc(COc3ccncn3)cc2)CC1 [MBX-8529]	9.84 µg/mL	>15 µg/mL	–
O=C(c1ccsc1)N1CCC(Cc2ccc(COc3ccncc3)cn2)CC1 [MBX-8619]	4.92 µg/mL	1.23 µg/mL	–
O=S(=O)(c1ccc(F)cc1)N1CCC(Cc2ccc(CN3CCN4CCC[C@H]4C3)cc2)CC1 [MBX-8668]	11.8 µg/mL	1.47 µg/mL	–
O=S(=O)(c1ccc(F)cc1)N1CCC(Cc2ccc(CN3CCn4cncc4C3)cc2)CC1 [MBX-8684]	7.38 µg/mL	1.30 µg/mL	–
CN1CCc2cc(CC3CCN(S(=O)(=O)c4ccc(F)cc4)CC3)ccc2C1 [MBX-8700]	8.97 µg/mL	1.26 µg/mL	–
CN1CCN(c2ccc(CC3CCN(S(=O)(=O)c4ccc(F)cc4)CC3)cc2)CC1 [MBX-8701]	0.67 µg/mL	0.19 µg/mL	–
O=C(c1ccsc1)N1CCN(Cc2ccc(-c3ccncc3)cc2)CC1 [MBX-8702]	1.14 µg/mL	0.32 µg/mL	–
OC(Cn1cncn1)(Cn1cncn1)c1ccc(F)cc1F [fluconazole]	–	–	< 8 µg/mL
